Measurements: patent EP2488183B1, “Composition for inhibiting TGF-beta comprising imidazopurine derivatives” (Korea Institute of Radiological & Medical Sciences, priority 2009, dated 2011)

Assays:
TGF-β = TGF-β inhibitor screening, 3TP-pGL2 luciferase reporter in transformed HEK 293 cells; assay type: cell-based, human; conditions: compound added 2 h before 0.5 ng/ml TGF-β, FIGS. 3a, 3b
Source text: In order to screen an agent for inhibiting TGF-β cells stably transformed by luciferase-expressing plasmids were used to measure an effect on TGF-β activity.
A plasmid with a Smad binding site and a […] activator inhibitor (PAI) promoter, obtained from professor Carlos Arteaga at the University of Vanderbilt in US, was inserted into pGL2-Null reporter plasmid (Promega, U.S.A.). […] The plasmid was used to transform human embryonic kidney (HEK) 293 cells according to the manufacturer s specification, using Lipofectamine 2000 (Invitrogen, Calsbad, CA, USA), thereby constructing a system for screening an effect on TGF-β activity by measuring luciferase activity. The activity of luciferase was measured using a Dual Luciferase Assay kit (Promega, Medison, WI, USA). […]
The HEK 293 cells transformed were inoculated into a 96-well plate at 20,000 cells/ well in triplicates and then incubated under the condition as described above for 24 hours. Then, TGF-β was added thereto at concentrations of 0.5, 1, and 5 ng/ml and after 15-hour incubation, luciferase activity was measured. […]
By using the screening system as described above, a TGF-β inhibition effect was tested on 8,000 compounds in a compound library. […] Then, the luciferase activity was measured as described above. […]

RAW 264.7 cell = experiment: RT-PCR of pro-inflammatory cytokine and iNOS mRNA in macrophages stimulated by LPS; assay type: cell-based, mouse; conditions: RAW 264.7, compound 2 h before 1 µg/ml LPS, 6 h; FIG. 8
Description: A macrophage is a front-line immune cell that is responsible for an initial immune response to various antigens and causes a strong inflammation reaction. RAW 264.7 cell, a mouse macrophage strain, was purchased from American Type Culture Collection (ATCC, U.S.A.), and incubated under 5% CO2 and at a temperature of 37°C in a Dulbecco's modified Eagle's medium (DMEM) supplemented with 10% FBS serum, 100 units/ml of penicillin, and 100 µg/ml of streptomycin. […] of compound I or II was added to the incubated cells and then, two hours later, the cells were treated with 1 µg/ml lipopolysaccharide (LPS), which is a cell wall component of a gram negative bacteria and incubated further for 6 hours. Then, the cells were collected and the total RNA thereof was isolated using TRIzol and quantified. Out of the total RNA, 1 µg of RNA was used to synthesize cDNA using a reverse transcriptase. Then, a polymerase chain reaction (PCR) was performed using the cDNA as a template to identify expression levels of cytokines. In detail, PCR was performed in the presence of a DNA polymerase using the cDNA as a template to amplify IL-1β, IL-6, and TNF-α which are pro-inflammatory cytokines, iNOS, nitric oxide synthase, and β-actin used as a control group with a cycle consisting of 30 seconds at a temperature of 94°C, 45 seconds at a temperature of 55°C, and 45 seconds at a temperature of 72°C repeated 30 times. Primers set forth in SEQ ID. NOs: 1 through 10 shown in Table 1 were used to amplify IL-1β, IL-6, TNF-α, iNOS and β-actin, respectively. Table 1 [Table 1]
The amplification product of PCR was subjected to electrophoresis on 1% agarose gel in which ethidium bromide (dye) was present so as to measure mRNA expression levels of the cytokines. FIGS. 8a and 8b show changes in the amounts of the pro-inflammatory cytokines caused by compounds I and II, respectively.

IMR-90 cells [1] = experiment: Collagen Sircol assay in TGF-β-treated lung fibrocytes; assay type: cell-based, human; conditions: IMR-90, TGF-β (5 ng/ml), 0, 1, 5 and 10 µM; FIG. 7b
Description: IMR-90 cells, human normal lung fibrocytes, were purchased from American Type Culture Collection (ATCC, U.S.A.), and were incubated under 5% CO2 and at a temperature of 37°C for 24 hours in a modified Eagle's medium (MEM) supplemented with 10% FBS serum, 100 units/ml of penicillin, and 100 µg/ml of streptomycin, 1 mM sodium pyruvate, and 0.1 mM non-essential amino acids. Then, two hours before treatment with TGF-β (5ng/ml), compound I was added to the cell culture at a varying concentration (0, 1, 5 and 10 µM) and then, the IMR-90 cells were incubated for 24 hours. Then, as described in Example 2, western blotting was performed to identify inhibition of differentiation of lung fibrocytes by compound I based on expression levels of α-SMA and fibronectin, which are fibrosis marker molecules. […] Also, in extracellular matrix, the amount of collagen, which is one of important materials regarding fibrosis, was measured according to the specification of the manufacturer by using a collagen Sircol assay kit (Biocolor, England).

IMR-90 cells [2] = experiment: Collagen amount in irradiated lung fibrocytes; assay type: cell-based, human; conditions: IMR-90, 10 µM, 2 h before 4 Gy radiation, 48 h; FIG. 7d
Description: (§1) In order to identify whether compound I inhibits radiation-induced fibrosis, instead of external stimulation by TGF-β radiation that can internally engogenously increase TGF-β was employed to induce fibrosis. IMR-90 cells were incubated as described in (1) above and the IMR-90 cells were inoculated to a 6 cm plate containing a modified Eagle's medium (MEM) supplemented with 10% FBS serum, 100 units/ml of penicillin, and 100 µg/ml of streptomycin, 1 mM sodium pyruvate, and 0.1 mM non-essential amino acids. Then, compound I at a concentration of 10 µM was added thereto and the IMR-90 cells were incubated for 2 hours, and then, 4 Gy radiation was applied thereto. 48 hours later, the IMR-90 cells were collected. Then, fibrosis makers as described in Example 2 were identified from the IMR-90 cells by western blotting.

IMR-90 cells [3] = experiment: Western blotting of fibrosis markers in irradiated lung fibrocytes; assay type: cell-based, human; conditions: IMR-90, 10 µM, 2 h before 4 Gy radiation, 48 h; FIG. 7c
Description: as §1

## Cc1[nH]c2nc3c(c(=O)n(Cc4c(F)cccc4Cl)c(=O)n3C)n2c1C [compound II, 3-(2-chloro-6-fluorobenzyl)-1,6,7-trimethyl-1H-imidazo[2,1-f]purine-2,4(3H,8H)-dion]
TGF-β
  TGF-β activity (luciferase activity): inhibit TGF-β activity in a concentration-dependent way
RAW 264.7 cell
  IL-6 mRNA expression: distinctively reduced
  expression of TNF-α: slightly reduced
  iNOS mRNA expression: distinctively reduced

## Cc1cn2c(nc3c2c(=O)n(Cc2ccccc2Cl)c(=O)n3C)[nH]1 [compound I, 3-(2-chlorobenzyl)-1,7-dimethyl-1H-imidazo[2,1-f]purine-2,4(3H,8H)-dion]
TGF-β
  TGF-β activity (luciferase activity): inhibit TGF-β activity in a concentration-dependent way
IMR-90 cells [1]
  amount of collagen: concentration-dependently reduced the amount of collagen
IMR-90 cells [2]
  amount of collagen: reduced to a level similar to that in the no-treatment control group
RAW 264.7 cell
  IL-1 mRNA expression: significantly inhibited
  expression of TNF-α: slightly reduced
  iNOS mRNA expression: significantly inhibited
IMR-90 cells [3]
  expressions of α-SMA and fibronectin: significantly reduced
